Laboratory results reported in patent US11268145B2, “Methods for treating Cushing's syndrome” (priority 2015, dated 2022).

System: FKBP5 gene expression
Assay: FKBP5 gene expression in whole blood of healthy subjects after GR agonist, with or without GRA
Type: in vivo, human
Conditions: GAPDH normalized
Method: FIG. 1: depicts a study scheme for examining the expression level of the gene FKBP5, which encodes the FKBP5 protein, in response to administration of a GR modulator. In this scheme, healthy subjects are administered a GR agonist, followed by co-administration of a GR agonist and a GR antagonist (GRA). Blood samples are obtained from 10 subjects before each dose and at various time points after each dose. FKBP5 expression levels are measured before dosing on each day, and at selected times after dosing on each day.
Blood samples are taken before each dose and at various time-points after each dose. The study scheme is depicted in FIG. 1. The expression level of the FKBP5 gene is measured in the pre-administration samples obtained before dosing on each day and in the post-administration samples obtained at various time points after dosing on each day. Raw expression level data in the samples are normalized against the expression level of the glyceraldehyde phosphate dehydrogenase (GAPDH) gene in each sample.

## Cn1cc(S(=O)(=O)N2CCC3=Cc4c(cnn4-c4ccc(F)cc4)C[C@]3(C(=O)c3cc(C(F)(F)F)ccn3)C2)cn1 [CORT125134]
Prednisone 25 mg with CORT125134 500 mg
  change in the fold change in FKBP5 expression: significant decrease

## CC#C[C@]1(O)CC[C@H]2[C@@H]3CCC4=CC(=O)CCC4=C3[C@@H](c3ccc(N(C)C)cc3)C[C@@]21C [mifepristone]
Prednisone 25 mg with mifepristone 600 mg
  change in the fold change in FKBP5 expression: significant decrease
